{
  "source": "paper PMC12428554",
  "about": "“Anti-HIV and Antimicrobial Activity of 7-Hydrazino-8-hydroxyquinoline-Based Aromatic Hydrazones” (International Journal of Molecular Sciences, 2025)",
  "key": {"[1]": {"test": "Neutral red (NR) cytotoxicity assay", "assay_type": "cell-based", "details": "human, Huh-7.5 cells", "description": "Huh7.5 cells were grown in the DMEM/F12 (2:1) medium supplemented with 10% FBS (BioSera, Cholet, France), 2 mM L-glutamine, 100 U/mL penicillin, and 100 µg/mL streptomycin in the presence of 5% CO2 at 37 °C. Cells were re-seeded every three days at a ratio of 1:3 or 1:5.\nThe 40 µg/mL neutral red working solution was prepared, incubated overnight at the same temperature as the cells, and then centrifuged for 10 min at 600× g to remove any precipitated dye crystals. After the incubation with compounds tested at 37 °C in 5% CO2 for 48 h, cells were washed with PBS and then 100 µL of neutral red medium was added to each well of the plate. The plate was incubated for 2 h at the appropriate culture conditions, then the neutral red medium was removed and the cells were washed with PBS. After that 150 µL neutral red destain solution per well was added (50% ethanol, 49% deionized water, 1% glacial acetic acid (Sigma-Aldrich, Burlington, MA, USA). After the neutral red was extracted from the cells and formed a homogeneous solution, the result of the analysis was evaluated using a Tecan Spark multimode microplate reader via absorbance at 540 nm."}, "P. aeruginosa ATCC 27853": {"test_system": "P. aeruginosa ATCC 27853", "test": "MIC by twofold serial dilution, P. aeruginosa", "assay_type": "cell-based", "details": "Pseudomonas aeruginosa, ATCC27853; 24 h, 37 °C; read-out: MIC (Mean ± SE) P. aeruginosa ATCC 27853", "description": "(§1) Candida albicans ATCC 10231, Pseudomonas aeruginosa ATCC 27853, and Staphylococcus aureus ATCC 29213 strains were obtained from the American Type Culture Collection (ATCC; Rockville, MD, USA). The subculture and inoculum preparation were performed according to CLSI M27-A3 for C. albicans on yeast extract peptone dextrose (YPD) agar (HiMedia, Mumbai, Maharashtra, India) and RPMI-1640 medium (PanEco, Moscow, Russia) with MOPS (3-(N-morpholino) propanesulfonic acid, >99.5%; PanEco, Moscow, Russia), and M7-A11 for P. aeruginosa and S. aureus on Mueller-Hinton agar (MHA; HiMedia, Mumbai, Maharashtra, India) and Mueller-Hinton broth (MHB; HiMedia, Mumbai, Maharashtra, India). The stock cell concentrations of fungus and bacteria were 1 × 10^6 and 1 × 10^8 cells/mL, respectively. A working suspension of C. albicans (5.0 × 10^2 cells/mL) was prepared by two-step dilution of the broth concentration with the RPMI-1640 medium. Assay suspensions of P. aeruginosa and S. aureus (1.0 × 10^6 cells/mL) were prepared by diluting the concentration with Mueller-Hinton broth (HiMedia, Mumbai, Maharashtra, India). Amphotericin B (Sigma-Aldrich, Burlington, MA, USA) and gentamicin (Sigma-Aldrich, Burlington, MA, USA) were used as secondary pharmaceutical standards.\n(§2) The minimum inhibitory concentration (MIC) was determined by the twofold serial dilution method, according to CLSI M27-A3 [33] and M07-A11 [34], in three independent experiments with four replicates each. Amphotericin B was used as a positive control for fungus; gentamicin was used as a positive control for bacteria. Stock solutions except gentamicin were prepared in DMSO at a concentration of 6400 μg/mL. Gentanicin was solubilized in sterile water at a concentration of 1280 μg/mL. Stock solutions of the tested substances were diluted to the final concentrations in the assay medium and 100 μL of each sample was added to the wells of 96-well plates, and then 100 μL of inoculum was added. Rows 11 and 12 were left for the negative control (medium with inoculum without the drug) and sterility control. The plates were incubated for 24 h at 35 °C in the case of C. albicans and at 37 °C in the case of P. aeruginosa and S. aureus. The tested concentration for gentamicin ranged from 0.0625 to 32 μg/mL; for other compounds, it ranged from 0.125 to 64 μg/mL. The MIC value was determined using spectrophotometer. The MIC was taken to be the lowest drug concentration that caused complete inhibition of microorganism growth compared to the control. The final MIC values were reported as the means with standard error (SE). Standard errors for µg/mL values less than 0.01 were excluded; standard errors for µM values less than 0.1 were excluded (Table 3)."}, "S. aureus ATCC 29213": {"test_system": "S. aureus ATCC 29213", "test": "MIC by twofold serial dilution, S. aureus", "assay_type": "cell-based", "details": "Staphylococcus aureus, ATCC29213, 24 h, 37 °C, read-out: MIC (Mean ± SE) S. aureus ATCC 29213", "description": "as §1, §2"}, "MTT cytotoxicity assay": {"test": "MTT cytotoxicity assay", "assay_type": "cell-based", "details": "human, Huh-7.5 cells", "description": "Huh7.5 cells were grown in the DMEM/F12 (2:1) medium supplemented with 10% FBS (BioSera, Cholet, France), 2 mM L-glutamine, 100 U/mL penicillin, and 100 µg/mL streptomycin in the presence of 5% CO2 at 37 °C. Cells were re-seeded every three days at a ratio of 1:3 or 1:5. Stock solutions were diluted in DMSO (BioReagent of molecular biology grade, Sigma, St. Louis, MO, USA), and the final DMSO concentration was 1%. After 24 h (30–40% monolayer), the solutions of the studied compounds diluted at different concentrations were introduced to the culture medium. After incubation at 37 °C in 5% CO2 for 48 h, a freshly prepared solution of thiazolyl blue tetrazolium bromide at a final concentration of 0.4 mg/mL was added to each well of the plate. Incubation was performed at +37 °C for 2 h. The medium containing unreacted MTT was removed via aspiration. The formed formazan dye was dissolved in 100 µL of isopropanol added to each well of the plate. The result of the analysis was evaluated using a Tecan Spark multimode microplate reader (Tecan Group Ltd., Männedorf, Switzerland) via absorbance at 544 nm."}, "Ku70–DNA complex": {"molecular_target": "T1, Ku70–DNA complex (Homo sapiens, UniProt P12956)", "T1 construct": "made in house; host or cells: Escherichia coli", "T1 sequence (P12956 whole entry)": "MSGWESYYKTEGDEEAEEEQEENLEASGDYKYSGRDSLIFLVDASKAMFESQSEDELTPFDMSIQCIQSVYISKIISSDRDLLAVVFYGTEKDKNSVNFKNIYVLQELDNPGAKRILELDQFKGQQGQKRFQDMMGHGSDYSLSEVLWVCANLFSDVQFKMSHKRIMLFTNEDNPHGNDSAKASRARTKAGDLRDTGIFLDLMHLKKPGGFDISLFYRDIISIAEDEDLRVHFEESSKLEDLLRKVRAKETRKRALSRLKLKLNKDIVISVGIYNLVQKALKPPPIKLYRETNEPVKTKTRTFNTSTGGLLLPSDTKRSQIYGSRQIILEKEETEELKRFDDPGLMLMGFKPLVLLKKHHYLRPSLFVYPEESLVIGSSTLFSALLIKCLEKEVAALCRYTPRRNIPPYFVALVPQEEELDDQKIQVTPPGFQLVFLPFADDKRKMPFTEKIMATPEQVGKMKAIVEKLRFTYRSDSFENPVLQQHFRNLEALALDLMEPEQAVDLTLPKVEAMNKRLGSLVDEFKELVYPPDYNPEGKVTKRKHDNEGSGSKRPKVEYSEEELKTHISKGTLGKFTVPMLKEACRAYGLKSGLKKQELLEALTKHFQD", "T1 sequence (P13010 whole entry partner)": "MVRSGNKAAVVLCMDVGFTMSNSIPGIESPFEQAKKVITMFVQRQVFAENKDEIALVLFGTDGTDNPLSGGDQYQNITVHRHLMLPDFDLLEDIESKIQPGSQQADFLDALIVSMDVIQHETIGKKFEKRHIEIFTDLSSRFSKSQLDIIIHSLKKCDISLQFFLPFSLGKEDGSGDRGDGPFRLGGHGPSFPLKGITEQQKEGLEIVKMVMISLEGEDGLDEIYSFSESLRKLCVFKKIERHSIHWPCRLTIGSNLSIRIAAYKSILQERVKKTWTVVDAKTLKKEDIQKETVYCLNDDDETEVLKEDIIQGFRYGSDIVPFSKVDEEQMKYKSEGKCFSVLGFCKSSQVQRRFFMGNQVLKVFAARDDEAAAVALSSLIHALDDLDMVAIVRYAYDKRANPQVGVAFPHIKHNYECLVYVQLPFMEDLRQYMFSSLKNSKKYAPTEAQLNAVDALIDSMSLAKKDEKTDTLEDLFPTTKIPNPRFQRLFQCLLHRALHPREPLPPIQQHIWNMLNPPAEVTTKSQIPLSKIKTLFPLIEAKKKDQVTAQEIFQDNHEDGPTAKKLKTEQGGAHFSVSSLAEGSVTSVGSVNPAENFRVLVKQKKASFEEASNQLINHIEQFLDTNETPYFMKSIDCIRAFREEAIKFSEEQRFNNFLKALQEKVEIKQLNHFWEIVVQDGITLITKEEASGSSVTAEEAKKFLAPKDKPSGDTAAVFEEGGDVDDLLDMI", "test": "EMSA of Ku70/Ku80–DNA complex formation", "assay_type": "binding", "details": "12.8 nM Ku heterodimer, 4 nM labelled 40 mer DNA duplex, read-out: IC50, inhibition of Ku70–DNA complex formation", "description": "A bicistronic construct was used for the simultaneous expression of the Ku70 and Ku80 proteins in E. coli. Proteins were chromatographically purified with a 6His-tag at the N terminus of the Ku80 subunit. Recombinant Ku protein was produced in bacterial cell culture, purified, and its DNA-binding activity was characterized.\nIsolation was performed using affinity chromatography on Ni^2+-NTA resin. The presence of Ku and impurities was monitored using SDS-PAGE and Western blot analysis. The testing of substances as potential inhibitors of the interaction of the Ku heterodimer with DNA was carried out using the gel inhibition assay.\nThe testing of substances as potential inhibitors of the interaction of the Ku heterodimer with DNA was carried out using the EMSA. […] The result was visualized by radioautography on a Typhoon FLA 9500 PhosphorImager (GE Healthcare Technologies, Chicago, IL, USA). The counting of radioautograms was performed using QuantityOne 4.6.6 software (Bio-Rad, Hercules, CA, USA). The calculation of IC50 parameters was carried out by Prism 8.0.1 software (GraphPad Software, San-Diego, CA, USA)."}},
  "note": "Values joined by “and” are separate entries in the source; they are usually repeats but may differ in a detail not shown here. Identical values can stand only once.",
  "data": [
    {"compound": "Oc1c(N/N=C/c2ccccc2)ccc2cccnc12", "note": "[Compound I, 7-(2-Benzylidenohydrazinyl)-8-hydroxyquinoline]", "values": [
      {"measurement": "CC50 at 48 h", "setting": "[1]", "value": "14.5 ± 3.5", "unit": "µM"},
      {"measurement": "MIC", "setting": "P. aeruginosa ATCC 27853", "value": "> 64 µg/mL and > 243 µM"},
      {"measurement": "MIC", "setting": "S. aureus ATCC 29213", "value": "52 µg/mL and 198 µM"},
      {"measurement": "CC50 at 48 h", "setting": "MTT cytotoxicity assay", "value": "50.5 ± 2.5", "unit": "µM"},
      {"measurement": "IC50", "setting": "Ku70–DNA complex", "value": "40 ± 10", "unit": "µM"}
    ]},
    {"compound": "O=[N+]([O-])c1ccc(/C=N/Nc2ccc3cccnc3c2O)cc1", "note": "[II, 7-(4-Nitrobenzylidenohydrazinyl)-8-hydroxyquinoline]", "values": [
      {"measurement": "CC50 at 48 h", "setting": "[1]", "value": "21 ± 4", "unit": "µM"},
      {"measurement": "MIC", "setting": "P. aeruginosa ATCC 27853", "value": "> 64 µg/mL and > 208 µM"},
      {"measurement": "MIC", "setting": "S. aureus ATCC 29213", "value": "14 ± 1.9", "unit": "µg/mL"},
      {"measurement": "CC50 at 48 h", "setting": "MTT cytotoxicity assay", "value": "123 ± 13.2", "unit": "µM"},
      {"measurement": "IC50", "setting": "Ku70–DNA complex", "value": "50 ± 20", "unit": "µM"}
    ]},
    {"compound": "O=[N+]([O-])c1cccc(/C=N/Nc2ccc3cccnc3c2O)c1", "note": "[III, 7-(3-Nitrobenzylidenohydrazinyl)-8-hydroxyquinoline]", "values": [
      {"measurement": "CC50 at 48 h", "setting": "[1]", "value": "7.1 ± 0.7", "unit": "µM"},
      {"measurement": "MIC", "setting": "P. aeruginosa ATCC 27853", "value": "> 64 µg/mL and > 208 µM"},
      {"measurement": "MIC", "setting": "S. aureus ATCC 29213", "value": "18 ± 4.8", "unit": "µg/mL"},
      {"measurement": "CC50 at 48 h", "setting": "MTT cytotoxicity assay", "value": "38 ± 9.1", "unit": "µM"},
      {"measurement": "IC50", "setting": "Ku70–DNA complex", "value": "60 ± 20", "unit": "µM"}
    ]},
    {"compound": "COc1ccc(/C=N/Nc2ccc3cccnc3c2O)cc1", "note": "[IV, 7-(4-Methoxybenzylidenohydrazinyl)-8-hydroxyquinoline]", "values": [
      {"measurement": "CC50 at 48 h", "setting": "[1]", "value": "9.1 ± 1.5", "unit": "µM"},
      {"measurement": "MIC", "setting": "P. aeruginosa ATCC 27853", "value": "> 64 µg/mL and > 218 µM"},
      {"measurement": "MIC", "setting": "S. aureus ATCC 29213", "value": "64 µg/mL and 218 µM"},
      {"measurement": "CC50 at 48 h", "setting": "MTT cytotoxicity assay", "value": "47 ± 3.2", "unit": "µM"},
      {"measurement": "IC50", "setting": "Ku70–DNA complex", "value": "80 ± 30", "unit": "µM"}
    ]},
    {"compound": "Oc1c(N/N=C/c2ccc(Br)c(Br)c2)ccc2cccnc12", "note": "[V, 7-(3,4-Dibromobenzylidenohydrazinyl)-8-hydroxyquinoline]", "values": [
      {"measurement": "CC50 at 48 h", "setting": "[1]", "value": "8.6 ± 0.1", "unit": "µM"},
      {"measurement": "MIC", "setting": "P. aeruginosa ATCC 27853", "value": "> 64 µg/mL and > 152 µM"},
      {"measurement": "MIC", "setting": "S. aureus ATCC 29213", "value": "36.3 ± 10.3", "unit": "µg/mL"},
      {"measurement": "CC50 at 48 h", "setting": "MTT cytotoxicity assay", "value": "120 ± 7.5", "unit": "µM"},
      {"measurement": "IC50", "setting": "Ku70–DNA complex", "value": "25 ± 8", "unit": "µM"}
    ]},
    {"compound": "Oc1c(N/N=C/c2ccc(F)cc2)ccc2cccnc12", "note": "[VI, 7-(4-Fluorobenzylidenohydrazinyl)-8-hydroxyquinoline]", "values": [
      {"measurement": "CC50 at 48 h", "setting": "[1]", "value": "6.7 ± 0.2", "unit": "µM"},
      {"measurement": "MIC", "setting": "P. aeruginosa ATCC 27853", "value": "> 64 µg/mL and > 228 µM"},
      {"measurement": "MIC", "setting": "S. aureus ATCC 29213", "value": "≥ 64 µg/mL and ≥ 228 µM"},
      {"measurement": "CC50 at 48 h", "setting": "MTT cytotoxicity assay", "value": "45.5 ± 3.6", "unit": "µM"},
      {"measurement": "IC50", "setting": "Ku70–DNA complex", "value": "> 250", "unit": "µM"}
    ]}
  ]
}
